Results taken from PubChem BioAssay (NCI).
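Results reflect a 48-hour exposure of cells in 96-well plates to compound at five concentrations. The concentration for full growth arrest is given as TGI.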

Tests used:
Assay in all cases: NCI-60 cell line screen, 48 h
IGROV1 ovarian = test system: IGROV1 ovarian
M14 melanoma = test system: M14 melanoma
SK-OV-3 ovarian = test system: SK-OV-3 ovarian
UO-31 renal = test system: UO-31 renal
RXF 393 renal = test system: RXF 393 renal
OVCAR-4 ovarian = test system: OVCAR-4 ovarian
MOLT-4 leukemia = test system: MOLT-4 leukemia
TK-10 renal = test system: TK-10 renal
NCI-H460 lung = test system: NCI-H460 lung
SNB-19 CNS = test system: SNB-19 CNS
786-0 renal = test system: 786-0 renal
U251 CNS = test system: U251 CNS
A549 NSCLC = test system: A549 NSCLC
BT-549 breast = test system: BT-549 breast
EKVX NSCLC = test system: EKVX NSCLC
UACC-62 melanoma = test system: UACC-62 melanoma
T-47D breast = test system: T-47D breast
SK-MEL-28 melanoma = test system: SK-MEL-28 melanoma
DU-145 prostate = test system: DU-145 prostate
SN12C renal = test system: SN12C renal
HCT-116 colon = test system: HCT-116 colon
KM12 colon = test system: KM12 colon
UACC-257 melanoma = test system: UACC-257 melanoma
NCI-H23 lung = test system: NCI-H23 lung
HCC-2998 colon = test system: HCC-2998 colon
SF-295 CNS = test system: SF-295 CNS
CCRF-CEM leukemia = test system: CCRF-CEM leukemia
SR leukemia = test system: SR leukemia
SF-268 CNS = test system: SF-268 CNS
NCI-H522 lung = test system: NCI-H522 lung
OVCAR-3 ovarian = test system: OVCAR-3 ovarian
MDA-N = test system: MDA-N
SNB-75 CNS = test system: SNB-75 CNS
CAKI-1 renal = test system: CAKI-1 renal
HS 578T breast = test system: HS 578T breast
HT29 colon = test system: HT29 colon
SF-539 CNS = test system: SF-539 CNS
HCT-15 colon = test system: HCT-15 colon
SW-620 colon = test system: SW-620 colon
PC-3 prostate = test system: PC-3 prostate
MCF7 breast = test system: MCF7 breast
HL-60(TB) leukemia = test system: HL-60(TB) leukemia
MDA-MB-435 = test system: MDA-MB-435
NCI-H226 lung = test system: NCI-H226 lung
SK-MEL-5 melanoma = test system: SK-MEL-5 melanoma
HOP-62 NSCLC = test system: HOP-62 NSCLC
OVCAR-8 ovarian = test system: OVCAR-8 ovarian
RPMI-8226 leukemia = test system: RPMI-8226 leukemia
MDA-MB-231 breast = test system: MDA-MB-231 breast
NCI/ADR-RES ovarian = test system: NCI/ADR-RES ovarian
ACHN renal = test system: ACHN renal
COLO 205 colon = test system: COLO 205 colon
K-562 leukemia = test system: K-562 leukemia

Measured: TGI

CN(C)c1ccc(/C=C2\Oc3ccccc3C2=O)cc1
> 100 µM: all assays above
